From ChEMBL document CHEMBL5365446, “Discovery, Structure-Activity Relationships, and In Vivo Activity of Dihydropyridone Agonists of the Bile Acid Receptor TGR5” (J Med Chem, 2023)
In brackets after ≈: the same amount, converted by molar mass.

What was measured:
[1] = biological target: T1, G-protein coupled bile acid receptor 1 (Homo sapiens, UniProt Q8TDU6); assay: Agonist activity at human TGR5 receptor expressed in HEK293 cells cotransfected with pCMV tag4b-TGR5 assessed as activation of intracellular cAMP production incubated overnight by luciferase reporter gene assay; assay type: functional, cell-based
T1 sequence (Q8TDU6 whole entry): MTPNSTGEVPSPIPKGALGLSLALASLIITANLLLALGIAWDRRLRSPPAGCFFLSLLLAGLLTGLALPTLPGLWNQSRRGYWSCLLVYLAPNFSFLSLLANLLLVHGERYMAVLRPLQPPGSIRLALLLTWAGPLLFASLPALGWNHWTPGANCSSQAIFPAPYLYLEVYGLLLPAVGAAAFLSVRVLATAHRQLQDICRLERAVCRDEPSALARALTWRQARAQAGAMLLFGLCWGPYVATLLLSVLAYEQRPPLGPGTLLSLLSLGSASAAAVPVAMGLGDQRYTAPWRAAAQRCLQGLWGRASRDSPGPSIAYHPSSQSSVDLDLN

[2] = biological target: T2, G-protein coupled bile acid receptor 1 (Mus musculus, UniProt Q80SS6); assay: Agonist activity at mouse TGR5 receptor expressed in HEK293 cells cotransfected with pCMV AC6-TGR5 assessed as activation of intracellular cAMP production incubated overnight by luciferase reporter gene assay; assay type: functional, cell-based
T2 sequence (Q80SS6 whole entry): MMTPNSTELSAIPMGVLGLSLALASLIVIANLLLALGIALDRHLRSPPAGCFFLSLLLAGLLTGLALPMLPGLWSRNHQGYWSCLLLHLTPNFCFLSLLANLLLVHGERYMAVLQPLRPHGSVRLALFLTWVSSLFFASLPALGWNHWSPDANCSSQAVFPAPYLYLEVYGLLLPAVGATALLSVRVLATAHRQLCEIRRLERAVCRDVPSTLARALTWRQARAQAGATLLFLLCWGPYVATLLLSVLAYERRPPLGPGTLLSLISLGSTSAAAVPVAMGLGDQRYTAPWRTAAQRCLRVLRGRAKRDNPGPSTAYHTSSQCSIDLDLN

physchem [3] = details: buffer, pH 7.4
physchem [4] = details: buffer, pH 7.4; remark: listed apart in the source
[5] = Apparent permeability across apical to basolateral side in human Caco-2 cells measured after 1 hr by LC-MS/MS analysis
[6] = Apparent permeability across basolateral to apical side in human Caco-2 cells measured after 1 hr by LC-MS/MS analysis
in vitro [7] = details: CD-1, mouse, liver microsomes
in vitro [8] = details: CD-1, mouse, liver microsomes; remark: listed apart in the source
in vitro [9] = details: CD-1, mouse, plasma

Row | Compound | EC50 ([1]; read-out: EC50) [nM] | EC50 ([2]; read-out: EC50) [nM] | other results
1 | CC1=C(C(=O)OCc2ccccc2)C(c2ccc(Cl)cc2)CC(=O)N1C (stereo not given) |  |  | EC50 ([1]; read-out: pEC50 (converted)): 631 nM
2 | COCCN1C(=O)CC(c2ccc(Cl)cc2)C(C(=O)OCc2ccc(C(=O)OC)cc2)=C1C (stereo not given) | 300 |  | 
3 | COCCN1C(=O)CC(c2ccc(Cl)cc2)C(C(=O)OCc2ccc(OC)cc2)=C1C (stereo not given) |  | 300 | 
4 | COCCN1C(=O)CC(c2ccc(Cl)cc2)C(C(=O)OCc2ccc(C(F)(F)F)cc2)=C1C (stereo not given) |  | 400 | 
5 | COC(=O)CN1C(=O)CC(c2ccc(Cl)cc2)C(C(=O)OCc2ccccc2OC)=C1C (stereo not given) |  | 50 | 
6 | COCCN1C(=O)CC(c2ccc(Cl)cc2)C(C(=O)OCC2CCCCC2)=C1C (stereo not given) | 700 | 1200 | 
7 | COc1ccccc1COC(=O)C1=C(C)N(C[C@@H]2CCCO2)C(=O)C[C@H]1c1ccc(Cl)nc1 | 35 |  | 
8 | COCCN1C(=O)CC(c2ccc(Cl)cc2)C(C(=O)OCc2ccccc2OC(F)(F)F)=C1C (stereo not given) |  | 1200 | EC50 ([2]; read-out: pEC50 (converted)): 10000 nM
9 | COCCN1C(=O)CC(c2ccc(Cl)cc2)C(C(=O)OCc2cccc(OC)c2)=C1C (stereo not given) | 300 |  | 
10 | O=C1CC(c2ccc(Cl)cc2)C(C(=O)OCc2ccccc2)=CN1 (stereo not given) |  | 8600 | 
11 | COCCN1C(=O)CC(c2ccc(Cl)cc2)C(C(=O)OCc2cccc(C(=O)OC)c2)=C1C (stereo not given) | 800 | 800 | 
12 | CC1=C(C(=O)OCc2ccccc2)C(c2ccc(Cl)cc2F)CC(=O)N1 (stereo not given) | 2000 |  | 
13 | COCCN1C(=O)CC(c2ccc(Cl)cc2)C(C(=O)OCc2cccc(C(F)(F)F)c2)=C1C (stereo not given) | 400 | 800 | 
14 | CC1=C(C(=O)OCc2ccccc2)C(c2ccc(C)cc2)CC(=O)N1 (stereo not given) | 6300 |  | 
15 | COCCN1C(=O)CC(c2ccc(Cl)cc2)C(C(=O)OCc2ccccc2OC)=C1C (single isomer, unassigned; enantiomer 1) | 120 |  | 
16 | COc1ccccc1COC(=O)C1=C(C)N(C[C@@H]2CCCO2)C(=O)C[C@@H]1c1ccc(Cl)nc1 | 429 |  | 
17 | COCCN1C(=O)CC(c2ccc(Cl)cc2)C(C(=O)OCc2ccccc2OC)=C1C (single isomer, unassigned) | 75 | 120 | 
18 | COc1ccccc1COC(=O)C1=C(C)N(CC2CCCO2)C(=O)CC1c1ccc(Cl)nc1 (racemic; 77) | 2 |  | EC50 ([1]; read-out: pEC50 (converted)): 31.6 nM
19 | CC1=C(C(=O)OCc2ccccc2)C(c2ccc(C(F)(F)F)cc2)CC(=O)N1 (stereo not given) | 1200 |  | 
20 | CC1=C(C(=O)OCc2ccccc2)C(c2ccccc2OC(C)C)CC(=O)N1 (stereo not given) |  | 2300 | 
21 | COC(=O)C1=C(C)N(C)C(=O)CC1c1ccc(Cl)cc1 (stereo not given) |  | 15000 | 
22 | COc1ccccc1COC(=O)C1=C(C)N(C[C@H]2CCCO2)C(=O)C[C@H]1c1ccc(Cl)nc1 | 2 |  | microsomal CLint at 40 min, 1 µM (in vitro [7]): 1310 µL/min/mg; logD at 24 h (physchem [3]): 3.7; half-life at 40 min, 1 µM (in vitro [8]): 24 s; solubility thermodynamic at 24 h (physchem [4]): 38.2 µM (≈ 18 µg/mL); Papp A→B at 1 h [5]: 22.5 ×10⁻⁶ cm/s; half-life at 10 µM (in vitro [9]): > 6 h; Papp B→A at 1 h [6]: 12.3 ×10⁻⁶ cm/s
23 | COc1ccccc1COC(=O)C1=C(C)N(Cc2ccco2)C(=O)CC1c1ccc(Cl)cc1 (stereo not given) | 260 | 160 | 
24 | COCCN1C(=O)CC(c2ccc(Cl)cc2)C(C(=O)OCc2ccccc2C(F)(F)F)=C1C (stereo not given) | 1200 |  | EC50 ([2]; read-out: pEC50 (converted)): 1260 nM
25 | COCCCN1C(=O)CC(c2ccc(Cl)cc2)C(C(=O)OCc2ccccc2OC)=C1C (stereo not given) | 190 | 730 | 
26 | COc1ccccc1COC(=O)C1=C(C)N(C[C@H]2CCCO2)C(=O)C[C@@H]1c1ccc(Cl)nc1 | 223 |  | 
27 | COc1ccccc1COC(=O)C1=C(C)N(CC2CCCO2)C(=O)CC1c1ccc(Cl)nc1 (racemic; 78) | 88 |  | 
28 | COCCN1C(=O)CC(c2ccc(Cl)cc2)C(C(=O)OCc2cccc(C)c2)=C1C (stereo not given) |  |  | EC50 ([2]; read-out: pEC50 (converted)): 316 nM
29 | COCCN1C(=O)CC(c2ccc(Cl)cc2)C(C(=O)OCc2c(C)cc(C)cc2C)=C1C (stereo not given) |  | 300 | 

More lines, main results first:

Row | EC50 ([1]; read-out: EC50) [nM] | EC50 ([2]; read-out: EC50) [nM] | Compound | other results
30 | 300 | 500 | COCCN1C(=O)CC(c2ccc(Cl)cc2)C(C(=O)OCc2ccc(F)cc2)=C1C (stereo not given) | 
31 | 300 | 1000 | COCCN1C(=O)CC(c2ccc(Cl)cc2)C(C(=O)OCc2ccccc2Cl)=C1C (stereo not given) | 
32 | 800 | 900 | CC1=C(C(=O)OCc2ccccc2)C(c2ccc(Cl)cc2)CC(=O)N1Cc1ccccc1 (stereo not given) | 
33 | 300 |  | COCCN1C(=O)CC(c2ccc(Cl)cc2)C(C(=O)OCc2ccc(C)cc2)=C1C (stereo not given) | 
34 |  | 770 | COc1ccccc1COC(=O)C1=C(C)N(CCO)C(=O)CC1c1ccc(Cl)cc1 (stereo not given) | 
35 | 800 |  | C=CCN1C(=O)CC(c2ccc(Cl)cc2)C(C(=O)OCc2ccccc2)=C1C (stereo not given) | EC50 ([2]; read-out: pEC50 (converted)): 1580 nM
36 | 300 | 600 | COCCN1C(=O)CC(c2ccc(Cl)cc2)C(C(=O)OCc2ccccc2F)=C1C (stereo not given) | 
37 |  | 4700 | CC1=C(C(=O)OCc2ccccc2)C(c2ccc(Cl)cc2)CC(=O)N1CCN(C)C (stereo not given) | 
38 | 500 | 900 | CCCCN1C(=O)CC(c2ccc(Cl)cc2)C(C(=O)OCc2ccccc2)=C1C (stereo not given) | 
39 |  | 300 | CC1=C(C(=O)OCc2ccccc2)C(c2ccc(Cl)cc2)CC(=O)N1CC1CCC1 (stereo not given) | EC50 ([1]; read-out: pEC50 (converted)): 316 nM
40 | 800 | 1100 | C=C(C)CN1C(=O)CC(c2ccc(Cl)cc2)C(C(=O)OCc2ccccc2)=C1C (stereo not given) | 
41 | 800 |  | COCCN1C(=O)CC(c2ccc(Cl)cc2)C(C(=O)OCCCc2ccccc2)=C1C (stereo not given) | 
42 | 500 | 900 | COCCN1C(=O)CC(c2ccc(Cl)cc2)C(C(=O)OCc2ccccc2)=C1C (stereo not given) | 
43 |  | 800 | COCCN1C(=O)CC(c2ccc(Cl)cc2)C(C(=O)OCc2cccc(F)c2)=C1C (stereo not given) | 
44 | 110 |  | COc1ccccc1COC(=O)C1=C(C)N(C[C@@H]2CCCO2)C(=O)C[C@H]1c1ccc(Cl)cc1 (racemic) | 
45 | 14 |  | COc1ccccc1COC(=O)C1=C(C)N(C[C@H]2CCCO2)C(=O)C[C@H]1c1ccc(Cl)cc1 | EC50 ([1]; read-out: pEC50 (converted)): 15.8 nM; logD at 24 h (physchem [3]): 3.2; solubility thermodynamic at 24 h (physchem [4]): 2.6 µM (≈ 1.22 µg/mL); Papp A→B at 1 h [5]: 0.2 ×10⁻⁶ cm/s; Papp B→A at 1 h [6]: 0.4 ×10⁻⁶ cm/s
46 |  | 400 | COCCN1C(=O)CC(c2ccc(Cl)cc2)C(C(=O)OCc2ccc(Cl)cc2)=C1C (stereo not given) | 
47 |  | 900 | CCN1C(=O)CC(c2ccc(Cl)cc2)C(C(=O)OCc2ccccc2)=C1C (stereo not given) | 
48 | 30 |  | COc1ccccc1COC(=O)C1=C(C)N(C[C@H]2CCCO2)C(=O)C[C@H]1c1ccc(Cl)cc1 (racemic) | EC50 ([1]; read-out: pEC50 (converted)): 25.1 nM
49 | 1000 | 700 | COCCN1C(=O)CC(c2ccc(Cl)cc2)C(C(=O)OCc2ccncc2)=C1C (stereo not given) | 
50 | 700 | 1000 | C#CCN1C(=O)CC(c2ccc(Cl)cc2)C(C(=O)OCc2ccccc2)=C1C (stereo not given) | 
51 | 13000 |  | COCCN1C(=O)CC(c2ccc(Cl)cc2)C(C(=O)NCc2ccccc2)=C1C (stereo not given) | 
52 |  | 600 | COCCN1C(=O)CC(c2ccc(Cl)cc2)C(C(=O)OCc2cccc(Cl)c2)=C1C (stereo not given) | 
